Data published in US4507487A, “Chemical compounds” (Bristol-Myers Company, priority 1983, dated 1985).
Converted amounts (≈) assume the structure as drawn. Where two headings read alike, the source gives them in different places.

How the values were obtained:
Format in all cases: cell-based
[1] = system: Penicillinsensitive S. aureus; test: MIC, two-fold serial agar dilution in Mueller-Hinton agar, group (G+)-Ia; conditions: Staphylococcus aureus, read-out: Geometric Mean of MIC
Experimental: (§1) In the primary evaluation of the compounds of this invention, the Minimum Inhibitory Concentrations (MIC's) of the compounds were determined by the two-fold serial agar dilution method in Mueller-Hinton agar against 32 strains of test organisms in six groups.

[2] = system: Cephalothinresistant E. coli and Kl. pneumoniae; test: MIC, two-fold serial agar dilution in Mueller-Hinton agar, group (G-)-Ib; conditions: read-out: Geometric Mean of MIC
Experimental: as §1
(G-)Ib: Cephalothinresistant E. coli (3 strains) and Kl. pneumoniae (3

[3] = system: M. morganii, Ent. cloacae and Ser. marcescens; test: MIC, two-fold serial agar dilution in Mueller-Hinton agar, group (G-)-II; conditions: read-out: Geometric Mean of MIC
Experimental: as §1
(G-)II: M. morganii (1 strain), Ent. cloacae (2 strains) and Ser.

[4] = system: K. pneumoniae D11; test: MIC against specific test organism; conditions: Klebsiella pneumoniae, read-out: Minimum Inhibitory Concentration
Experimental: as §1
(§2) The test method was as described for Table 1.

[5] = system: M. morganii A9553; test: MIC against specific test organism; conditions: Morganella morganii, read-out: Minimum Inhibitory Concentration
Experimental: as §1, §2

[6] = system: Ser. marcescens A20019; test: MIC against specific test organism; conditions: Serratia marcescens, read-out: Minimum Inhibitory Concentration
Experimental: as §1, §2

[7] = system: E. coli A15164; test: MIC against specific test organism; conditions: Escherichia coli; E. coli A15164, cephalothin-resistant strain; read-out: Minimum Inhibitory Concentration
Experimental: as §1, §2

[8] = system: Ent. cloacae A9656; test: MIC against specific test organism; conditions: Enterobacter cloacae, read-out: Minimum Inhibitory Concentration
Experimental: as §1, §2

[9] = system: S. aureus Smith; test: MIC against specific test organism; conditions: Staphylococcus aureus, read-out: Minimum Inhibitory Concentration
Experimental: as §1, §2

[10] = system: K. pneumoniae A9867; test: MIC against specific test organism; conditions: Klebsiella pneumoniae; K. pneumoniae A9867, cephalothin-resistant strain; read-out: Minimum Inhibitory Concentration
Experimental: as §1, §2

[11] = system: Pr. mirabilis A9554; test: MIC against specific test organism; conditions: Proteus mirabilis, read-out: Minimum Inhibitory Concentration
Experimental: as §1, §2

[12] = system: S. aureus BX-1633-2; test: MIC against specific test organism; conditions: Staphylococcus aureus, BX16332; S. aureus BX-1633-2, penicillin-resistant strain; read-out: Minimum Inhibitory Concentration
Experimental: as §1, §2

[13] = system: Ps. aeruginosa A15150; test: MIC against specific test organism; conditions: Pseudomonas aeruginosa, read-out: Minimum Inhibitory Concentration
Experimental: as §1, §2

[14] = system: Ps. aeruginosa A20717; test: MIC against specific test organism; conditions: Pseudomonas aeruginosa, read-out: Minimum Inhibitory Concentration
Experimental: as §1, §2

[15] = system: E. coli Juhl; test: MIC against specific test organism; conditions: Escherichia coli, read-out: Minimum Inhibitory Concentration
Experimental: as §1, §2

[16] = system: Ps. aeruginosa A9843; test: MIC against specific test organism; conditions: Pseudomonas aeruginosa, read-out: Minimum Inhibitory Concentration
Experimental: as §1, §2

[17] = system: Penicillinresistant S. aureus; test: MIC, two-fold serial agar dilution in Mueller-Hinton agar, group (G+)-Ib; conditions: Staphylococcus aureus, read-out: Geometric Mean of MIC
Experimental: as §1
(G+)Ib: Penicillinresistant S. aureus (5 strains)

[18] = system: Ps. aeruginosa; test: MIC, two-fold serial agar dilution in Mueller-Hinton agar, group (G-)-III; conditions: Pseudomonas aeruginosa, Ps. aeruginosa (6 strains), read-out: Geometric Mean of MIC
Experimental: as §1

[19] = system: Cephalothinsensitive E. coli, Kl. pneumoniae and Pr. mirabilis; test: MIC, two-fold serial agar dilution in Mueller-Hinton agar, group (G-)-Ia; conditions: read-out: Geometric Mean of MIC
Experimental: as §1
(G-)Ia: Cephalothinsensitive E. coli (2 strains), Kl. pneumoniae (1
strain) and Pr. mirabilis (2 strains)

[20] = (G+)-Ia, penicillin-sensitive S. aureus (5 strains)
[21] = (G-)-Ia, cephalothin-sensitive E. coli (2), Kl. pneumoniae (1), Pr. mirabilis (2 strains)
[22] = (G+)-Ib, penicillin-resistant S. aureus (5 strains)
[23] = (G-)-II, M. morganii (1), Ent. cloacae (2), Ser. marcescens (2 strains)

| Compound | MIC [1, 20] [µg/mL] | MIC [2] [µg/mL] | MIC [3] [µg/mL] | MIC [18] [µg/mL] | MIC [19, 21] [µg/mL] | MIC [17, 22] [µg/mL] | MIC [3, 23] [µg/mL] | further results |
| --- | --- | --- | --- | --- | --- | --- | --- | --- |
| CCO/N=C(\C(=O)NC1C(=O)N2C(C(=O)[O-])=C(C[n+]3ccsc3SC)CS[C@H]12)c1csc(N)n1 (stereo partly shown) [Example 4, 7-[(Z)-2-(2-Aminothiazol-4-yl)-2-(ethoxyimino)acetamido]-3-(2-methylthiothiazolio)methyl-3-cephem-4-carboxylate] | 0.35 (≈ 0.647 µM) | 0.32 (≈ 0.592 µM) | 0.69 (≈ 1.28 µM) | 5.6 (≈ 10.4 µM) | 0.076 (≈ 0.141 µM) |  |  | MIC [4]: 0.1 µg/mL (≈ 0.185 µM); MIC [5]: 0.4 µg/mL (≈ 0.74 µM); MIC [6]: 0.1 µg/mL (≈ 0.185 µM); MIC [7]: 0.2 µg/mL (≈ 0.37 µM); MIC [8]: 0.2 µg/mL (≈ 0.37 µM); MIC [9]: 0.4 µg/mL (≈ 0.74 µM); MIC [10]: 1.6 µg/mL (≈ 2.96 µM); MIC [11]: 0.2 µg/mL (≈ 0.37 µM); MIC [12]: 0.4 µg/mL (≈ 0.74 µM); MIC [13]: 3.1 µg/mL (≈ 5.73 µM); MIC [14]: 12.5 µg/mL (≈ 23.1 µM); MIC [15]: 0.1 µg/mL (≈ 0.185 µM); MIC [16]: 12.5 µg/mL (≈ 23.1 µM); MIC [17]: 0.61 µg/mL (≈ 1.13 µM) |
| CC(C)(O/N=C(\C(=O)NC1C(=O)N2C(C(=O)[O-])=C(C[n+]3ccsc3)CSC12)c1csc(N)n1)C(=O)O (stereo not shown) [Example 5, 7-[(Z)-2-(2-Aminothiazol-4-yl)-2-(2-carboxyprop-2-oxyimino)acetamido]-3-thiazoliomethyl-3-cephem-4-carboxylate] | 8.3 (≈ 15 µM) | 2.5 (≈ 4.52 µM) | 3.6 (≈ 6.51 µM) | 3.1 (≈ 5.61 µM) | 0.13 (≈ 0.235 µM) | 25 (≈ 45.2 µM) |  |  |
| Cc1c(CCO)sc[n+]1CC1=C(C(=O)[O-])N2C(=O)C(NC(=O)/C(=N\OC(C)(C)C(=O)O)c3csc(N)n3)C2SC1 (stereo not shown) [Example 6, 7-[(Z)-2-(2-Aminothiazol-4-yl)-2-(2-carboxyprop-2-oxyimino)acetamido]-3-[5-(2-hydroxyethyl)-4-methylthiazolio]methyl-3-cephem-4-carboxylate] | 8.3 (≈ 13.6 µM) | 1.8 (≈ 2.95 µM) |  | 4.4 (≈ 7.2 µM) | 0.076 (≈ 0.124 µM) | 25 (≈ 40.9 µM) | 2.8 (≈ 4.58 µM) |  |
| Cc1csc[n+]1CC1=C(C(=O)[O-])N2C(=O)C(NC(=O)/C(=N\OC(C)(C)C(=O)O)c3csc(N)n3)C2SC1 (stereo not shown) [Example 7, 7-[(Z)-2-(2-Aminothiazol-4-yl)-2-(2-carboxyprop-2-oxyimino)acetamido]-3-(4-methylthiazolio)methyl-3-cephem-4-carboxylate] | 7.2 (≈ 12.7 µM) | 1.8 (≈ 3.18 µM) |  | 4 (≈ 7.06 µM) | 0.076 (≈ 0.134 µM) | 12.5 (≈ 22.1 µM) | 2.8 (≈ 4.94 µM) |  |
| CC(C)(O/N=C(\C(=O)NC1C(=O)N2C(C(=O)[O-])=C(C[n+]3ccsc3N)CS[C@H]12)c1csc(N)n1)C(=O)O (stereo partly shown) [Example 8, 7-[(Z)-2-(2-Aminothiazol-4-yl)-2-(2-carboxyprop-2-oxyimino)acetamido]-3-(2-amino-3-thiazolio)methyl-3-cephem-4-carboxylate] | 5.5 (≈ 9.69 µM) | 4 (≈ 7.05 µM) |  | 5.6 (≈ 9.87 µM) | 0.15 (≈ 0.264 µM) | 14 (≈ 24.7 µM) | 8.3 (≈ 14.6 µM) |  |
| COc1sc[n+](CC2=C(C(=O)[O-])N3C(=O)C(NC(=O)/C(=N\OC(C)(C)C(=O)O)c4csc(N)n4)C3SC2)c1C (stereo not shown) [Example 9, 7-[(Z)-2-(2-Aminothiazol-4-yl)-2-(2-carboxyprop-2-oxyimino)acetamido]-3-(5-methoxy-4-methylthiazolio)methyl-3-cephem-4-carboxylate] | 9.5 (≈ 15.9 µM) | 1.6 (≈ 2.68 µM) |  | 6.3 (≈ 10.6 µM) | 0.1 (≈ 0.168 µM) |  | 2.8 (≈ 4.69 µM) | MIC [17]: 16 µg/mL (≈ 26.8 µM) |
| CO/N=C(\C(=O)NC1C(=O)N2C(C(=O)[O-])=C(C[n+]3csc(CCN)c3C)CSC12)c1csc(N)n1 (stereo not shown) [Example 10, 7-[(Z)-2-(2-Aminothiazol-4-yl)-2-methoxyiminoacetamido]-3-[5-(2-aminoethyl)-4-methylthiazolio]methyl-3-cephem-4-carboxylate] | 2.1 (≈ 3.91 µM) | 1.4 (≈ 2.6 µM) | 5.5 (≈ 10.2 µM) | 22 (≈ 40.9 µM) | 0.8 (≈ 1.49 µM) | 6.3 (≈ 11.7 µM) |  |  |
| Cc1scc[n+]1CC1=C(C(=O)[O-])N2C(=O)C(NC(=O)/C(=N\OC3(C(=O)O)CCC3)c3csc(N)n3)[C@H]2SC1 (stereo partly shown) [Example 11, 7-[(Z)-2-(2-Aminothiazol-4-yl)-2-(1-carboxycyclobut-1-oxyimino)acetamido]-3-(2-methylthiazolio)methyl-3-cephem-4-carboxylate] | 4.2 (≈ 7.26 µM) | 1.6 (≈ 2.77 µM) |  | 2.1 (≈ 3.63 µM) | 0.076 (≈ 0.131 µM) | 9.5 (≈ 16.4 µM) | 0.4 (≈ 0.691 µM) |  |
| CCSc1scc[n+]1CC1=C(C(=O)[O-])N2C(=O)C(NC(=O)/C(=N\OC3(C(=O)O)CCC3)c3csc(N)n3)[C@H]2SC1 (stereo partly shown) [Example 12, 7-[(Z)-2-(2-Aminothiazol-4-yl)-2-(1-carboxycyclobut-1-oxyimino)acetamido]-3-(2-ethylthiothiazolio)methyl-3-cephem-4-carboxylate] | 1.8 (≈ 2.88 µM) | 0.79 (≈ 1.26 µM) |  | 5.7 (≈ 9.12 µM) | 0.066 (≈ 0.106 µM) | 4.7 (≈ 7.52 µM) | 0.4 (≈ 0.64 µM) |  |
| CC(C)(O/N=C(\C(=O)NC1C(=O)N2C(C(=O)[O-])=C(C[n+]3ccsc3SCC(=O)O)CS[C@H]12)c1csc(N)n1)C(=O)O (stereo partly shown) [Example 13, 7-[(Z)-2-(2-Aminothiazol-4-yl)-2-(2-carboxyprop-2-oxyimino)acetamido]-3-(2-carboxymethylthiothiazolio)methyl-3-cephem-4-carboxylate] | 25 (≈ 38.9 µM) | 4 (≈ 6.22 µM) |  | 23 (≈ 35.8 µM) | 0.26 (≈ 0.405 µM) | 50 (≈ 77.8 µM) | 1.6 (≈ 2.49 µM) |  |
| CC(C)(O/N=C(\C(=O)NC1C(=O)N2C(C(=O)[O-])=C(C[n+]3ccsc3NC=O)CS[C@H]12)c1csc(N)n1)C(=O)O (stereo partly shown) [Example 14, 7-[2-(Z)-(2-Aminothiazol-4-yl)-2-(2-carboxyprop-2-yloxyimino)acetamido]-3-(2-formylaminothiazolio)methyl-3-cephem-4-carboxylate] | 5.5 (≈ 9.23 µM) | 3.6 (≈ 6.04 µM) |  | 7 (≈ 11.8 µM) | 0.15 (≈ 0.252 µM) | 12.5 (≈ 21 µM) | 3.2 (≈ 5.37 µM) |  |
| CNc1scc[n+]1CC1=C(C(=O)[O-])N2C(=O)C(NC(=O)/C(=N\OC(C)(C)C(=O)O)c3csc(N)n3)[C@H]2SC1 (stereo partly shown) [Example 15, 7-[(Z)-2-(2-Aminothiazol-4-yl)-2-(2-carboxyprop-2-oxyimino)acetamido]-3-(2-methylaminothiazolio)methyl-3-cephem-4-carboxylate] | 7.2 (≈ 12.4 µM) | 5.5 (≈ 9.46 µM) | 3.6 (≈ 6.19 µM) | 13 (≈ 22.3 µM) | 0.4 (≈ 0.688 µM) | 25 (≈ 43 µM) |  |  |
| CSc1scc(C)[n+]1CC1=C(C(=O)[O-])N2C(=O)C(NC(=O)/C(=N\OC(C)(C)C(=O)O)c3csc(N)n3)[C@H]2SC1 (stereo partly shown) [Example 16, 7-[(Z)-2-(2-Aminothiazol-4-yl)-2-(2-carboxyprop-2-oxyimino)acetamido]-3-(4-methyl-2-methylthiothiazolio)methyl-3-cephem-4-carboxylate] | 4.2 (≈ 6.85 µM) | 0.79 (≈ 1.29 µM) |  | 2.8 (≈ 4.57 µM) | 0.1 (≈ 0.163 µM) | 19 (≈ 31 µM) | 0.53 (≈ 0.865 µM) |  |
| C#CCO/N=C(\C(=O)NC1C(=O)N2C(C(=O)[O-])=C(C[n+]3ccsc3SC)CS[C@H]12)c1csc(N)n1 (stereo partly shown) [Example 17, 7-[(Z)-2-(2-Aminothiazol-4-yl)-2-propargyloxyiminoacetamido]-3-(2-methylthiothiazolio)methyl-3-cephem-4-carboxylate] |  | 0.6 (≈ 1.09 µM) | 0.69 (≈ 1.25 µM) | 6.9 (≈ 12.5 µM) |  |  |  | MIC [1]: 0.23 µg/mL (≈ 0.418 µM); MIC [17]: 0.8 µg/mL (≈ 1.45 µM); MIC [19]: 0.66 µg/mL (≈ 1.2 µM) |
